Among the data in ChEMBL document CHEMBL1833846 (Bioorg Med Chem Lett, 2011) are IC50, Activity and Ratio IC50 values, retold here.

For one assay, the target named is Histone deacetylase. Kind of assay: Inhibition of human HDAC in HeLa cells after 30 mins by Fluor de Lys fluorescence assay. The assay is classed as cell-based.
Assay [1] deals with T1, Histone deacetylase 3 (Homo sapiens, UniProt O15379). Kind of assay: Inhibition of HDAC3 assessed as residual activity at 32 uM after 30 mins by Fluor de Lys fluorescence assay.
For assay [2], the target named is T2, Histone deacetylase 1 (Homo sapiens, UniProt Q13547). Nature of the assay: Inhibition of HDAC1 assessed as residual activity at 32 uM after 30 mins by Fluor de Lys fluorescence assay.
For assay [3], the target named is T3, Protein deacetylase HDAC6 (Homo sapiens) (UniProt Q9UBN7).
T3 sequence (whole entry): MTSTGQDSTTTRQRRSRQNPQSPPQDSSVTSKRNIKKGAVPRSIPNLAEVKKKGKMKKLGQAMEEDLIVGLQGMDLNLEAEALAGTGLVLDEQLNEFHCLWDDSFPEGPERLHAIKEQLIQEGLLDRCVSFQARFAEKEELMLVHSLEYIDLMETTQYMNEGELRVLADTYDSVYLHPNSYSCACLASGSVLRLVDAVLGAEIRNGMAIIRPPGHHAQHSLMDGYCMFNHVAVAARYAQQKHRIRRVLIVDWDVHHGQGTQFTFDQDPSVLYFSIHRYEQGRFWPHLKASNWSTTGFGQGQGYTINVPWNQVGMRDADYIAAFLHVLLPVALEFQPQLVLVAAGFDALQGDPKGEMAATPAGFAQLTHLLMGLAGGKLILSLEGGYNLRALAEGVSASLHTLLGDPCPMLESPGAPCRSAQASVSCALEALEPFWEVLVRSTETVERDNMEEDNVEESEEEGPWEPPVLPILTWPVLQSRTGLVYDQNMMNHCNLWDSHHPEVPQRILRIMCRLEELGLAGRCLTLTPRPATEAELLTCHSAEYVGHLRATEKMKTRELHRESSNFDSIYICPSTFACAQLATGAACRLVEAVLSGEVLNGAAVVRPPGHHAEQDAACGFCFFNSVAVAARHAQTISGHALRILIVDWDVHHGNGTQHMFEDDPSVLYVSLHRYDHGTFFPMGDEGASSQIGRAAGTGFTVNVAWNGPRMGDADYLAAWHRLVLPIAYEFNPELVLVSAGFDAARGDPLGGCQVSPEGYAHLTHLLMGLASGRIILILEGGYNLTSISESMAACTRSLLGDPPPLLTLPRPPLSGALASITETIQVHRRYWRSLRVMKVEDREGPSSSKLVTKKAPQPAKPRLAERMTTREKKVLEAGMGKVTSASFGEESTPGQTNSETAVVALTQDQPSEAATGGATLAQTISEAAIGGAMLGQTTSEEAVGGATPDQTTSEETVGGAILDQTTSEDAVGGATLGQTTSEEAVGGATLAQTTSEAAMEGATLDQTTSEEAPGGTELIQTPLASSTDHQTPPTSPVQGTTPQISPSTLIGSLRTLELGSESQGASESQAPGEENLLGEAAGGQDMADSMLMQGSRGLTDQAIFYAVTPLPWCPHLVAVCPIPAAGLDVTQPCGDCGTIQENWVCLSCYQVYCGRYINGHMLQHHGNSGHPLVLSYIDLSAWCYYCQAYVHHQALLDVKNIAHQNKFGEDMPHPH
Nature of the assay: Inhibition of HDAC6 assessed as residual activity at 32 uM after 30 mins by Fluor de Lys fluorescence assay.

A short description of assay [4]: Selectivity ratio of IC50 for HDAC1 to IC50 for HDAC6.
The target of assay [5] is T3, Protein deacetylase HDAC6 (Homo sapiens). Conditions: 375 nM.
Assay [6] concerns the target T1, Histone deacetylase 3. Conditions: 375 nM.
For assay [7], the target named is T2, Histone deacetylase 1. Conditions: 375 nM.
Assay [8] can be described thus: Selectivity ratio of IC50 for HDAC3 to IC50 for HDAC6.
In assay [9] the target is T2, Histone deacetylase 1. Kind of assay: Inhibition of HDAC1 after 30 mins by Fluor de Lys fluorescence assay.
The target in assay [10] is T4, Protein deacetylase HDAC6 (Homo sapiens, UniProt Q9UBN7).
T4 sequence (Q9UBN7 whole entry): T3 sequence (whole entry)
Nature of the assay: Inhibition of HDAC6 after 30 mins by Fluor de Lys fluorescence assay.

Assay [11] deals with T1, Histone deacetylase 3. Nature of the assay: Inhibition of HDAC3 after 30 mins by Fluor de Lys fluorescence assay.
Assay [12] in a line: Selectivity ratio of IC50 for HDAC3 to IC50 for HDAC1.

Structures are written as SMILES.

T1 sequence (O15379 whole entry): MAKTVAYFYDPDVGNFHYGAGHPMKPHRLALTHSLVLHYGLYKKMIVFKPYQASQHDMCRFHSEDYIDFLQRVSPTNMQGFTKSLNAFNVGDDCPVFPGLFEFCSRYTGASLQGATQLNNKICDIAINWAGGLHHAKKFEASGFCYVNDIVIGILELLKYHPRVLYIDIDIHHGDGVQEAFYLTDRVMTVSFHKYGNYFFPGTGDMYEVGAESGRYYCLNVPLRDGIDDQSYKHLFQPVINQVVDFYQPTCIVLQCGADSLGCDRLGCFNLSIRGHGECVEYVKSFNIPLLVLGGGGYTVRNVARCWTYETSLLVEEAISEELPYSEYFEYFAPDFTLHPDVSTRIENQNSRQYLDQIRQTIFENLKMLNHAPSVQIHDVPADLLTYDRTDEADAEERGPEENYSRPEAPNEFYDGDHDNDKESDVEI
T2 sequence (Q13547 whole entry): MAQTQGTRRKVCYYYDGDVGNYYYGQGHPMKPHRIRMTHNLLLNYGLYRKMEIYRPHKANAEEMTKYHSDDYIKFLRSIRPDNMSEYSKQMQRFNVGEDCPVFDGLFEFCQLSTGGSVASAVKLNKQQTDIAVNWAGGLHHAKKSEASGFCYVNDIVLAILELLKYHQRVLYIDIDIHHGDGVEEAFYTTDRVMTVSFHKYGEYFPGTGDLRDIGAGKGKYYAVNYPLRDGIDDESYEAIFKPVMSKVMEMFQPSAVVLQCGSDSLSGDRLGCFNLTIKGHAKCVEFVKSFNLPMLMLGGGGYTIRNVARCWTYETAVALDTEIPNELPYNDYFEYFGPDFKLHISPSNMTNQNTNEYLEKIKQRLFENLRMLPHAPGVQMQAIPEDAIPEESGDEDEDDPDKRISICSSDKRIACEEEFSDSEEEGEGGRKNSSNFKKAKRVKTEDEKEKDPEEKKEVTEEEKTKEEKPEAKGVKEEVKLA

What is called IC50 is the concentration that gives 50% inhibition. `O=C(CC(CCCCC(=O)Nc1ccccc1)c1ccccc1)NO` (configuration not stated) displayed an IC50 at Histone deacetylase of 73 µM. Besides, the Activity on Histone deacetylase 3 [1] stood at 50%; at Histone deacetylase 1 [2], 45%; in assay [3], 25%.

On to `C=CC(CCCCC(=O)Nc1ccccc1)CC(=O)NO` (configuration not stated), for which the IC50 against Histone deacetylase was determined as 15 µM. Besides, the figures for the Activity (at Histone deacetylase 3 [1]; at Histone deacetylase 1 [2]; in assay [3]) were 47%, 24% and 27%, respectively.

Consider `O=C(CCCCCCC(=O)Nc1ccc([C@H]2O[C@@H](CSc3nc(-c4ccccc4)c(-c4ccccc4)o3)C[C@@H](c3ccc(CO)cc3)O2)cc1)NO`, for which the Ratio IC50 in assay [4] was 7.

The molecule `CC(CCCCC(=O)Nc1ccccc1)CC(=O)NO` (configuration not stated) gave an IC50 against Histone deacetylase of 0.35 µM. Besides, the Activity in [5] was 74%; at Histone deacetylase 3 [6], 59%; on Histone deacetylase 1 [7] it was 46%.

In turn, `CCCCC(CCCCC(=O)Nc1ccccc1)CC(=O)NO` (configuration not stated) showed an IC50 on Histone deacetylase of 184 µM. Moreover, the Activity at Histone deacetylase 3 [1] is 51%; at Histone deacetylase 1 [2] it was 33%; in [3], 24%.

For `CCC(CCCCC(=O)Nc1ccccc1)CC(=O)NO` (configuration not stated), the Ratio IC50 stood at 12 in assay [8], 3 in assay [4] and 4 in assay [12]. In addition, the IC50 against Histone deacetylase 1 [9] came out at 22 µM; against Histone deacetylase, 32 µM; in assay [10], 8 µM; against Histone deacetylase 3 [11] it was 97 µM. Besides, the Activity was 83% on Histone deacetylase 3 [1], 39% on Histone deacetylase 1 [2] and 18% in assay [3].
